Measurements from patent US10513521B2, “Compositions and methods for inhibiting BMP” (The Brigham and Women's Hospital, Inc., priority 2014, dated 2019).
Residue numbers refer to the chain shown, from its start.

Tests used:
ALK2 [1] = biological target: T1, ALK2 (Mus musculus, UniProt P37172); experiment: HTRF pSMAD1 cell-based ALK2 assay (C2C12 cells, BMP6 as agonist); conditions: cell-based assay, BMP6; read-out: Cell IC50 BMP6
T1 construct: The C2C12 cell line was selected for the measurement of ALK2 activity using BMP6 as the agonist; host or cells: C2C12
T1 sequence (P37172 21-509): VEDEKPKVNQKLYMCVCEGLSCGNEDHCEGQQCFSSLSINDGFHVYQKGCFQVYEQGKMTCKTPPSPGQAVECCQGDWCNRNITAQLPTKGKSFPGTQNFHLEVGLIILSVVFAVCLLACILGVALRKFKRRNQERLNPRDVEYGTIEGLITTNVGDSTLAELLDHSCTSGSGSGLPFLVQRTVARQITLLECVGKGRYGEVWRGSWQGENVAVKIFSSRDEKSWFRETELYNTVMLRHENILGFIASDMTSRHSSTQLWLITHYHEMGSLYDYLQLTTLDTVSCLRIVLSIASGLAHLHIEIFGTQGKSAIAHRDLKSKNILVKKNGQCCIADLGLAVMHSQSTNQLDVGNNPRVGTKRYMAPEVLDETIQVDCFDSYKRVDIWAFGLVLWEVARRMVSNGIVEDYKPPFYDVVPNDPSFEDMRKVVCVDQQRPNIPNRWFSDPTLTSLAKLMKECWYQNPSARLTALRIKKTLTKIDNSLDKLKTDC
In short: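 Phospho-SMAD1 HTRF readout, detection incubated overnight at room temperature. Before that: starved cells in 0.1% FBS for 4 h, 30 min compound pretreatment, then 30 min agonist, BMP6 on C2C12 or BMP9 on BAOEC.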

[2] = Cell-based assay, TGFb1 (Cell IC50)
ALK1 = ALK1 (Homo sapiens, UniProt P37023); experiment: TR-FRET enzymatic ALK kinase assay, ALK1
Experimental: (§1) Briefly, the ALKs enzymatic assay was initiated by dispense 2.5 μl enzyme in 1× kinase reaction buffer. The assay plate was then added with compounds followed by incubation at room temperature for 10 minutes. Then 2.5 μl/well substrate was added.

ALK2 [3] = biological target: T2, ALK2 (Homo sapiens, UniProt Q04771); experiment: TR-FRET enzymatic ALK kinase assay, ALK2
T2 sequence (Q04771 21-509): T1 sequence (P37172 21-509) with V1M, Q10P, I121L, E162D, S310P
Experimental: as §1

ALK3 = ALK3 (Homo sapiens, UniProt P36894); experiment: TR-FRET enzymatic ALK kinase assay, ALK3
Experimental: as §1

ALK4 = biological target: T3, ALK4 (Homo sapiens, UniProt P36896); experiment: TR-FRET enzymatic ALK kinase assay, ALK4
T3 sequence (P36896 24-505): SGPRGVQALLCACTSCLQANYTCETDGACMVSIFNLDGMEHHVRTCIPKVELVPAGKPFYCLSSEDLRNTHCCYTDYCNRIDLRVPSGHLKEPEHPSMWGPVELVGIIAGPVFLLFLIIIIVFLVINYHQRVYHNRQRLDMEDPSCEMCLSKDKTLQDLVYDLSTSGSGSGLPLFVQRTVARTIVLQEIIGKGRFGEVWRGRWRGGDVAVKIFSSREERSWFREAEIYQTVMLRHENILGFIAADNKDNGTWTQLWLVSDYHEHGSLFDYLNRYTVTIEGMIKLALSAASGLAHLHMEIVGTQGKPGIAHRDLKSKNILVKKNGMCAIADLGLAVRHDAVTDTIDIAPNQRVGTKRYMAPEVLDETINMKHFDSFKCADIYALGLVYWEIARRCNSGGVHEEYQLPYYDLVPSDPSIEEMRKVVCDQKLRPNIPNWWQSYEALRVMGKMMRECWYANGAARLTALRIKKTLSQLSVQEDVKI
Experimental: as §1

ALK5 = biological target: T4, ALK5 (Homo sapiens, UniProt P36897); experiment: TR-FRET enzymatic ALK kinase assay, ALK5
T4 sequence (P36897 34-503): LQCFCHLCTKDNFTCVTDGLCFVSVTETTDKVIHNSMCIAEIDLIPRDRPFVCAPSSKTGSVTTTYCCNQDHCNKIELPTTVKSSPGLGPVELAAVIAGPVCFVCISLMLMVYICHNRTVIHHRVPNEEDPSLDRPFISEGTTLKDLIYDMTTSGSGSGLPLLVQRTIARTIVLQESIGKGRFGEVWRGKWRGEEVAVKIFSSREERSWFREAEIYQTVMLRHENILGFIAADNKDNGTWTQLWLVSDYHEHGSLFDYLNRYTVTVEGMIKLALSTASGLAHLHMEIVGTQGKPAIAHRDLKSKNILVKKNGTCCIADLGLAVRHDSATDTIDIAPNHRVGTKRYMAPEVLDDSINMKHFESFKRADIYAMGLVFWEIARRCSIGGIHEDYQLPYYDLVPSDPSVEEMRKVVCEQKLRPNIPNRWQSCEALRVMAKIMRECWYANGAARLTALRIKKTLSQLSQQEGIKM
Experimental: Six ALK kinase enzyme assays were developed for determination of compound activities on ALK1, ALK2, ALK3, ALK4, ALK5 and ALK6.
as §1

ALK6 = ALK6 (Homo sapiens, UniProt O00238); experiment: TR-FRET enzymatic ALK kinase assay, ALK6
Chain of ALK6 (O00238 14-502): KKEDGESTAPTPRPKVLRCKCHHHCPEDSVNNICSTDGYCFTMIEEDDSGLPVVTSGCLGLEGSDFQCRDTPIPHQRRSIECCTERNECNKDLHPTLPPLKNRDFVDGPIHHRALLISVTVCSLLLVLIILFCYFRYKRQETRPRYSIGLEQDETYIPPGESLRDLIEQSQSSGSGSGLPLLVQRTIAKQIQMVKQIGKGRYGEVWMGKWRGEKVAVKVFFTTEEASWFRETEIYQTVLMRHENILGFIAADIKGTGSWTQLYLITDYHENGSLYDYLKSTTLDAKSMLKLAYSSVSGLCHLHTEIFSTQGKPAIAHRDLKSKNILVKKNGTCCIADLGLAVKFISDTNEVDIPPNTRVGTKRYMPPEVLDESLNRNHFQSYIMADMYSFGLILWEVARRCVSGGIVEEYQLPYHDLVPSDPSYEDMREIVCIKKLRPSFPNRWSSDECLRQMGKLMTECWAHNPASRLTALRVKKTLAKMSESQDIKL
Experimental: as §1

Chain of ALK3 (P36894 24-532): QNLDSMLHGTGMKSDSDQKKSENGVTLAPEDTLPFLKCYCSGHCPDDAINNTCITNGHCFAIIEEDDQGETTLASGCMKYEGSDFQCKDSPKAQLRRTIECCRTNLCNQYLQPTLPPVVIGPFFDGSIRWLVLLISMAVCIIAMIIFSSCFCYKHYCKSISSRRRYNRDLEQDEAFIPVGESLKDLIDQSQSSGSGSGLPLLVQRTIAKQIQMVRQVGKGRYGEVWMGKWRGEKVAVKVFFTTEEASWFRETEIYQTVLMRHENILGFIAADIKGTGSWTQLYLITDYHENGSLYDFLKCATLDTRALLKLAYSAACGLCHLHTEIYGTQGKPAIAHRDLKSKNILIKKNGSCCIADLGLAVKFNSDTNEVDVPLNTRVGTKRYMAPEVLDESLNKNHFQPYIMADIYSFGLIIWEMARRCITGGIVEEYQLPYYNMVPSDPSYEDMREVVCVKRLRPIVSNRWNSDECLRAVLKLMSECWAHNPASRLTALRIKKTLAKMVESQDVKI
Chain of ALK1 (P37023 22-503): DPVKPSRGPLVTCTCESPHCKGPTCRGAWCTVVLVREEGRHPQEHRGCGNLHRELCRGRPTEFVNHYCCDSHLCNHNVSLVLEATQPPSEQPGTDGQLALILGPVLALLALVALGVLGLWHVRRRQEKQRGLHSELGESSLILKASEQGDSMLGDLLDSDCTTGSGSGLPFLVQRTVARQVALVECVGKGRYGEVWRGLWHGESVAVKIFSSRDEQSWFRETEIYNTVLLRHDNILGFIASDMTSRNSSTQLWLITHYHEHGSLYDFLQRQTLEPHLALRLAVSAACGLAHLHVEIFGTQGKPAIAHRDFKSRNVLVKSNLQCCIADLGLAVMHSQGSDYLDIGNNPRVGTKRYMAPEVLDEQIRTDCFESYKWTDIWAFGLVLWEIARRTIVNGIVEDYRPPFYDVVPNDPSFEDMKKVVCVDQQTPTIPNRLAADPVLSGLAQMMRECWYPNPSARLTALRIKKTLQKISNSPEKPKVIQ

IC50 (ALK2 [1]) [nM] | IC50 [2] [nM] | IC50 (ALK1) [nM] | IC50 (ALK2 [3]) [nM] | IC50 (ALK3) [nM] | IC50 (ALK4) [nM] | IC50 (ALK5) [nM] | IC50 (ALK6) [nM] | SMILES
5920 | 58 | 1300 | 420 | > 10000 | > 10000 | > 10000 | > 10000 | c1ccc(-c2cnn3cc(-c4ccc(CCN5CCCCC5)cc4)cnc23)cc1 [Compound 88, 3-phenyl-6-(4-(2-(piperidin-1-yl)ethyl)phenyl)pyrazolo[1,5-a]pyrimidine]
11 | 200 | 4 | 6 | 42 | 920 | 5430 | 225 | C[C@@H]1CNC[C@H](C)N1c1ccc(-c2cnc3c(-c4ccc(C(N)=O)c5ccccc45)cnn3c2)cc1 [Compound 9, 4-(6-(4-((2S,6R)-2,6-dimethylpiperazin-1-yl)phenyl)pyrazolo[1,5-a]pyrimidin-3-yl)-1-naphthamide]
152 | 919 | 240 | 66 | 4900 | 6000 | > 10000 | > 10000 | CC(C)(CN1CCCCC1)Oc1ccc(-c2cnc3c(-c4cccc(S(N)(=O)=O)c4)cnn3c2)cc1 [Compound 96, 3-(6-(4-((2-methyl-1-(piperidin-1-yl)propan-2-yl)oxy)phenyl)pyrazolo[1,5-a]pyrimidin-3-yl)benzenesulfonamide]
668 | 7000 | 310 | 72 | 3300 | > 10000 | > 10000 | > 10000 | CC(O)c1cccc(-c2cnn3cc(-c4ccc(C5CCNCC5)cc4)cnc23)c1 (centres unmarked) [Compound 98, 1-(3-(6-(4-(piperidin-4-yl)phenyl)pyrazolo[1,5-a]pyrimidin-3-yl)phenyl)ethanol]
55 | 645 | 30 | 7 | 112 | 2990 | 7020 | 2060 | NC(=O)c1ccc(-c2cnn3cc(-c4ccc(N5C[C@@H]6C[C@H]5CN6)cc4)cnc23)c2ccccc12 [Compound 11, 4-(6-(4-((1 S,4S)-2,5-diazabicyclo[2.2.1]heptan-2-yl)phenyl)pyrazolo[1,5-a]pyrimidin-3-yl)-1-naphthamide]
114 | 2580 | 75 | 27 | 123 | 1210 | 5340 | 568 | C[C@@H]1CNC[C@H](C)N1c1ccc(-c2cnc3c(-c4cccc5c(C#N)cccc45)cnn3c2)cc1 [Compound 25, 5-(6-(4-((2R,6S)-2,6-dimethylpiperazin-1-yl)phenyl)pyrazolo[1,5-a]pyrimidin-3-yl)-1-naphthonitrile]
477 | > 100000 | 120 | 39 | 3300 | > 10000 | > 10000 | > 10000 | CC(C)(O)c1cccc(-c2cnn3cc(-c4ccc(C5CCNCC5)cc4)cnc23)c1 [Compound 100, 2-(3-(6-(4-(piperidin-4-yl)phenyl)pyrazolo[1,5-a]pyrimidin-3-yl)phenyl)propan-2-ol]
2990 | 1860 | 48 | 13 | 391 | 3040 | 6110 | 1910 | C[C@@H]1CNC[C@H](C)N1c1ccc(-c2cnc3c(-c4ccc(-c5nn[nH]n5)c5ccccc45)cnn3c2)cc1 [Compound 26, 3-(4-(1H-tetrazol-5-yl)naphthalen-1-yl)-6-(4-((2R,6S)-2,6-dimethylpiperazin-1-yl)phenyl)pyrazolo[1,5-a]pyrimidine]
148 | 2940 | 540 | 120 | 1600 | > 10000 | > 10000 | 6500 | CNS(=O)(=O)c1cccc2c(-c3cnn4cc(-c5ccc(N6[C@H](C)CNC[C@@H]6C)cc5)cnc34)cccc12 [Compound 41, 5-(6-(4-((2R,6S)-2,6-dimethylpiperazin-1-yl)phenyl)pyrazolo[1,5-a]pyrimidin-3-yl)-N-methylnaphthalene-1-sulfonamide]
27400 | > 100000 | 880 | 170 | > 10000 | > 10000 | > 10000 | > 10000 | C[C@@H]1CNC[C@H](C)N1c1ccc(-c2cnc3c(-c4cccc(C(F)(F)F)c4)cnn3c2)cc1 [Compound 81, 6-(4-((2R,6S)-2,6-dimethylpiperazin-1-yl)phenyl)-3-(3-(trifluoromethyl)phenyl)pyrazolo[1,5-a]pyrimidine]
479 | 30000 | 84 | 23 | 1800 | > 10000 | > 10000 | > 10000 | NS(=O)(=O)c1ccc(-c2cnn3cc(-c4ccc(OC5(CN6CCCCC6)COC5)cc4)cnc23)c2ccccc12 [Compound 87, 4-(6-(4-((3-(piperidin-1-ylmethyl)oxetan-3-yl)oxy)phenyl)pyrazolo[1,5-a]pyrimidin-3-yl)naphthalene-1-sulfonamide]
1850 | > 100000 | 160 | 35 | > 10000 | > 10000 | > 10000 | > 10000 | CN1CCC(c2ccc(-c3cnc4c(-c5ccc(S(N)(=O)=O)c6ccccc56)cnn4c3)cc2)CC1 [Compound 80, 4-(6-(4-(1-methylpiperidin-4-yl)phenyl)pyrazolo[1,5-a]pyrimidin-3-yl)naphthalene-1-sulfonamide]
419 | 57000 | 170 | 37 | 1500 | > 10000 | > 10000 | > 10000 | CS(=O)(=O)c1cccc(-c2cnn3cc(-c4ccc(CCN5CCCCC5)cc4)cnc23)c1 [Compound 86, 3-(3-(methylsulfonyl)phenyl)-6-(4-(2-(piperidin-1-yl)ethyl)phenyl)pyrazolo[1,5-a]pyrimidine]
